Assay results reported in patent US20250179078A1, “INHIBITORS OF NLRP3” (PTC THERAPEUTICS, INC., priority 2022, published 2025).

Target: T1, NLRP3 (Homo sapiens, UniProt Q96P20)
T1 construct: host or cells: THP-1 cells differentiated with PMA
Test: IL-1β Secretion Assay (NLRP3-dependent IL1β secretion in THP1 cells)
Format: cell-based
Conditions: PMA-differentiated THP-1 cells; compounds incubated 20 h; 2.5 μM Nigericin 3 h; HTRF IL-1β readout; read-out: IC50 IL-1β Inhibition
Outline: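 IL-1β in conditioned media, measured by HTRF after 3 h 2.5 μM nigericin stimulation, gave % inhibition fitted logistically for IC50. Before that, PMA-differentiated (100 ng/mL, 24 h) THP-1 cells were preincubated 20 h with 7 compound concentrations (3-fold serial, DMSO 1:200).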

T1 sequence (Q96P20 whole entry): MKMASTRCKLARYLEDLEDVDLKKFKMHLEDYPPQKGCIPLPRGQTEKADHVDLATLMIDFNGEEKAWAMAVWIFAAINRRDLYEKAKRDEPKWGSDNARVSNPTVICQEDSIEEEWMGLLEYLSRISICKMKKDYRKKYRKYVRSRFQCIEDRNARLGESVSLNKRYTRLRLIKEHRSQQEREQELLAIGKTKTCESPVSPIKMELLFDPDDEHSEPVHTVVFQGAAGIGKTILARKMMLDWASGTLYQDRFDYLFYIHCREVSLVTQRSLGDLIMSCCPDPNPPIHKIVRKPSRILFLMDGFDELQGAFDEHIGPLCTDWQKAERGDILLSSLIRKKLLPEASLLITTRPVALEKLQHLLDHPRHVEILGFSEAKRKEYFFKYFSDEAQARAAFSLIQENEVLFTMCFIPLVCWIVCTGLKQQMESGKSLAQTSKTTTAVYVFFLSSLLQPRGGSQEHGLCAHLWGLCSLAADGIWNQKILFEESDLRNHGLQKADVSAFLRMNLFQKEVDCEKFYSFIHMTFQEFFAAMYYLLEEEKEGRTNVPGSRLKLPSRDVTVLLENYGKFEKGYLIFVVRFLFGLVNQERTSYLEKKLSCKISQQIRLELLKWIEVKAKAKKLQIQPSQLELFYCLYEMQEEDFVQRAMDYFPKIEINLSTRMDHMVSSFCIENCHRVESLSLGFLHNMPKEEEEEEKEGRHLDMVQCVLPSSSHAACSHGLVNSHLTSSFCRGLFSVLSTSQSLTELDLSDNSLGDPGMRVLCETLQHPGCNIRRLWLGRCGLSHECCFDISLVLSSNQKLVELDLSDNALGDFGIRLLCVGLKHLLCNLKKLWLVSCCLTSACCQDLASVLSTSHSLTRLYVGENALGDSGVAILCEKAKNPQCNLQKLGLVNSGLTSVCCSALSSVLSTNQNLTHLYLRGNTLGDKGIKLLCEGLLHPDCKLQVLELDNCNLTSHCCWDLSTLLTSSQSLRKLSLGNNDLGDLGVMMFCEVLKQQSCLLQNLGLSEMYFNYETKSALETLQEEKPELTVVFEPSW

Compound	IC50 [nM]
CC(Nc1nnc(-c2ccc(OC(F)F)cc2OC(F)(F)F)c2cncn12)c1cccc(O)c1 (centres unmarked) [Compound 259]	< 1
COc1ccc(-c2nnc(N[C@H]3C[C@@](C)(O)C3)n3cc(C)cc23)c(OC(F)(F)F)c1 [Compound 108, (1s,3s)-3-({1-[4-methoxy-2-(trifluoromethoxy)phenyl]-7-methylpyrrolo[1,2-d][1,2,4]triazin-4-yl}amino)-1-methylcyclobutan-1-ol]	1 to 10
Cc1ccc(-c2nnc(NC3CCNC3=O)n3cccc23)c(CC(F)(F)F)c1 (centres unmarked) [Compound 157, 3-({1-[4-methyl-2-(2,2,2-trifluoroethyl)phenyl]pyrrolo[1,2-d][1,2,4]triazin-4-yl}amino)pyrrolidin-2-one]	1 to 10
COc1ccc(-c2nnc(N[C@@H]3CCCC[C@H]3O)n3cncc23)c(C2CC2)c1 [Compound 321, (1R,2R)-2-{[1-(2-cyclopropyl-4-methoxyphenyl)imidazo[1,5-d][1,2,4]triazin-4-yl]amino}cyclohexan-1-ol]	10 to 100
FC(F)Oc1cc(C(F)(F)F)ccc1-c1nnc(N[C@@H]2CCCOC2)n2cncc12 [Compound 188, 1-[2-(difluoromethoxy)-4-(trifluoromethyl)phenyl]-N-[(3R)-oxan-3-yl]imidazo[1,5-d][1,2,4]triazin-4-amine]	10 to 100
CN1CCC[C@@H](Nc2nnc(-c3ccc(Br)cc3OC(F)F)c3cncn23)C1 [Compound 195, 1-[4-bromo-2-(difluoromethoxy)phenyl]-N-[(3R)-1-methylpiperidin-3-yl]imidazo[1,5-d][1,2,4]triazin-4-amine]	< 1
Cc1ncn2c(N[C@@H]3CCCC[C@H]3O)nnc(-c3ccc(C(F)(F)F)cc3CC(F)(F)F)c12 [Compound 280, (1R,2R)-2-({8-methyl-1-[2-(2,2,2-trifluoroethyl)-4-(trifluoromethyl)phenyl]imidazo[1,5-d][1,2,4]triazin-4-yl}amino)cyclohexan-1-ol]	1 to 10
FC(F)Oc1ccc(-c2nnc(Nc3cc[nH]n3)n3cncc23)c(OC(F)(F)F)c1 [Compound 296, 1-[4-(difluoromethoxy)-2-(trifluoromethoxy)phenyl]-N-(1H-pyrazol-3-yl)imidazo[1,5-d][1,2,4]triazin-4-amine]	10 to 100
OCCN1CCC[C@@H](Nc2nnc(-c3ccc(Br)cc3C(F)(F)F)c3cncn23)C1 [Compound 201, 2-[(3R)-3-({1-[4-bromo-2-(trifluoromethyl)phenyl]imidazo[1,5-d][1,2,4]triazin-4-yl}amino)piperidin-1-yl]ethan-1-ol]	1 to 10
O[C@@H]1CCCC[C@@H](Nc2nnc(-c3ccc(C(F)(F)F)cc3CC(F)(F)F)c3cccn23)C1 (racemic) [Compound 129, (1R,3R)-3-({1-[2-(2,2,2-trifluoroethyl)-4-(trifluoromethyl)phenyl]pyrrolo[1,2-d][1,2,4]triazin-4-yl}amino)cycloheptan-1-ol AND (1S,3S)-3-({1-[2-(2,2,2-trifluoroethyl)-4-(trifluoromethyl)phenyl]pyrrolo[1,2-d][1,2,4]triazin-4-yl}amino)cycloheptan-1-ol]	1 to 10
COc1ccc(-c2nnc(N[C@@H]3CCOC[C@H]3O)n3cncc23)c(CC(F)(F)F)c1 [Compound 249, (3S,4R)-4-({1-[4-methoxy-2-(2,2,2-trifluoroethyl)phenyl]imidazo[1,5-d][1,2,4]triazin-4-yl}amino)oxan-3-ol]	1 to 10

The remaining lines, values ahead:

IC50 [nM]	Compound
1 to 10	Cc1ccc(-c2nnc(N[C@@H]3CCCN(C)C3)n3nc(C)cc23)c(OC(F)F)c1 [Compound 361, 4-[2-(difluoromethoxy)-4-methylphenyl]-2-methyl-N-[(3R)-1-methylpiperidin-3-yl]pyrazolo[1,5-d][1,2,4]triazin-7-amine]
10 to 100	O=C1NCCC1Nc1nnc(-c2ccc(C(F)(F)F)cc2C(F)(F)F)c2ccnn12 (centres unmarked) [Compound 396, 3-({4-[2,4-bis(trifluoromethyl)phenyl]pyrazolo[1,5-d][1,2,4]triazin-7-yl}amino)pyrrolidin-2-one]
1 to 10	CC(Nc1nnc(-c2ccc(C(F)(F)F)cc2OC(F)(F)F)c2cncn12)c1cccc(O)c1 (centres unmarked) [Compound 323, 3-[1-({1-[2-(trifluoromethoxy)-4-(trifluoromethyl)phenyl]imidazo[1,5-d][1,2,4]triazin-4-yl}amino)ethyl]phenol]
10 to 100	CCN1CCC[C@@H](Nc2nnc(-c3ccc(S(C)(=O)=O)cc3OC(F)(F)F)c3cc(C)nn23)C1 [Compound 369, N-[(3R)-1-ethylpiperidin-3-yl]-4-[4-(methanesulfonyl)-2-(trifluoromethoxy)phenyl]-2-methylpyrazolo[1,5-d][1,2,4]triazin-7-amine]
1 to 10	C[C@]1(O)C[C@@H](Nc2nnc(-c3ccc(C4CC4)cc3OC(F)(F)F)c3cncn23)C1 [Compound 346, (1s,3s)-3-({1-[4-cyclopropyl-2-(trifluoromethoxy)phenyl]imidazo[1,5-d][1,2,4]triazin-4-yl}amino)-1-methylcyclobutan-1-ol]
10 to 100	CCN1CCC[C@@H](Nc2nnc(-c3ccc(C(F)(F)F)cc3C(N)=O)c3cc(C)nn23)C1 [Compound 372, 2-(7-{[(3R)-1-ethylpiperidin-3-yl]amino}-2-methylpyrazolo[1,5-d][1,2,4]triazin-4-yl)-5-(trifluoromethyl)benzamide]
1 to 10	O=C1NCCC1Nc1nnc(-c2ccc(C(F)(F)F)cc2C2CC2)c2cncn12 (centres unmarked) [Compound 333, 3-({1-[2-cyclopropyl-4-(trifluoromethyl)phenyl]imidazo[1,5-d][1,2,4]triazin-4-yl}amino)pyrrolidin-2-one]
1 to 10	Cc1cc2c(-c3ccc(C(F)(F)F)cc3OC(F)F)nnc(N[C@H]3C[C@@](C)(O)C3)n2n1 [Compound 380, (1s,3s)-3-({4-[2-(difluoromethoxy)-4-(trifluoromethyl)phenyl]-2-methylpyrazolo[1,5-d][1,2,4]triazin-7-yl}amino)-1-methylcyclobutan-1-ol]
10 to 100	COc1ccc(-c2nnc(N[C@H]3C[C@@](C)(CO)C3)n3cncc23)c(CC(F)(F)F)c1 [Compound 341, [(1s,3s)-3-({1-[4-methoxy-2-(2,2,2-trifluoroethyl)phenyl]imidazo[1,5-d][1,2,4]triazin-4-yl}amino)-1-methylcyclobutyl]methanol]
1 to 10	Cc1cc2c(-c3ccc(C(F)(F)F)cc3CC(F)(F)F)nnc(N[C@H]3C[C@@](C)(O)C3)n2n1 [Compound 388, (1s,3s)-1-methyl-3-({2-methyl-4-[2-(2,2,2-trifluoroethyl)-4-(trifluoromethyl)phenyl]pyrazolo[1,5-d][1,2,4]triazin-7-yl}amino)cyclobutan-1-ol]
1 to 10	O[C@@H]1COCC[C@H]1Nc1nnc(-c2ccc(C3CC3)cc2CC(F)(F)F)c2cncn12 [Compound 351, (3S,4R)-4-({1-[4-cyclopropyl-2-(2,2,2-trifluoroethyl)phenyl]imidazo[1,5-d][1,2,4]triazin-4-yl}amino)oxan-3-ol]
10 to 100	COc1ccc(-c2nnc(NC3CCNC3=O)n3nc(C)cc23)c(CC(F)(F)F)c1 (centres unmarked) [Compound 386, 3-({4-[4-methoxy-2-(2,2,2-trifluoroethyl)phenyl]-2-methylpyrazolo[1,5-d][1,2,4]triazin-7-yl}amino)pyrrolidin-2-one]
